Measurements as given in patent publication US7135493B2, “HDAC inhibitor” (Astellas Pharma Inc., priority 2003, dated 2006).

Columns and labels:
[1] = target: human histone deacetylase; assay: Test 1: Determination of histone deacetylase inhibitor activity ([3H]acetyl histone deacetylation); assay type: biochemical; settings: human histone deacetylase partially purified from Jurkat cells; [3H]acetyl-labeled histones, 25° C., 30 minutes; read-out: Test 1: HDAC inhibitory activity IC50
Description: Test 1: Determination of Histone Deacetylase Inhibitor Activity
The partial purification of human histone deacetylase, the preparation of [^3H] acetyl histones, and the assay for histone deacetylase activity were performed basically according to the method as proposed by Yoshida et al. as follows.
Partial Purification of Human Histone Deacetylase
The human histone deacetylase was partially purified from human T cell leukemia Jurkat cells. Jurkat cells (5×10^8 cells) were suspended in 40 mL of the HDA buffer consisting of 15 mM potassium phosphate, pH 7.5, 5% glycerol and 0.2 mM EDTA. After homogenization, nuclei were collected by centrifugation (35,000×g, 10 min) and homogenized in 20 mL of the same buffer supplemented with 1 M (NH4)2SO4. The viscous homogenate was sonicated and clarified by centrifugation (35,000×g, 10 min), and the deacetylase was precipitated by raising the concentration of (NH4)2SO4 to 3.5 M. The precipitated protein was dissolved in 10 mL of the HDA buffer and dialyzed against 4 liters of the same buffer. The dialyzate was then loaded onto a DEAE-cellulose (Whatman DE52) column (25×85 mm) equilibrated with the same buffer and eluted with 300 mL of a linear gradient (0–0.6 M) of NaCl. A single peak of histone deacetylase activity appeared between 0.3 and 0.4 M NaCl.
Preparation of [^3H] Acetyl Histone
To obtain [^3H] acetyl-labeled histone as the substrate for the histone deacetylase assay, 1×10^8 cells of Jurkat in 20 mL of RPMI-1640 medium (supplemented with 10% FBS, penicillin (50 units/mL) and streptomycin (50 μg/mL)) were incubated with 300 MBq [^3H] sodium acetate in the presence of 5 mM sodium butyrate for 30 minutes in 5% CO2-95% air atmosphere at 37° C. in a 75 cm^2 flask, harvested into a centrifuge tube (50 mL), collected by centrifugation at 1000 rpm for 10 minutes, and washed once with phosphate-buffered saline. The washed cells were suspended in 15 mL of ice-cold lysis buffer (10 mM Tris-HCl, 50 mM sodium bisulfite, 1% Triton X-100, 10 mM MgCl2, 8.6% sucrose, pH 6.5). After Dounce homogenization (30 stroke), the nuclei were collected by centrifugation at 1000 rpm for 10 minutes, washed 3 times with 15 mL of the lysis buffer, and once with 15 mL of ice-cooled washing buffer (10 mM Tris-HCl, 13 mM EDTA, pH 7.4) successively. […]
For the standard assay, 10 μl of [^3H] acetyl-labeled histones were added to 90 μl of the enzyme fraction, and the mixture was incubated at 25° C. for 30 minutes. […] The released [^3H] acetic acid was extracted with 1 mL of ethyl acetate, and 0.9 mL of the solvent layer was taken into 10 mL of toluene scintillation solution for determination of radioactivity.

[2] = test system: splenic cells of Lewis rats; assay: Test 2: Determination of T-cell growth inhibitor activity (T lymphocyte blastogenesis, Concanavalin A, AlamarBlue); assay type: cell-based; settings: Lewis rat splenic cells, 72 hours, AlamarBlue Assay, read-out: Test 2: T-cell growth inhibitory activity IC50
Description: Test 2: Determination of T-Cell Growth Inhibitor Activity
The T lymphocyte blastogenesis test was performed in microtiter plates with each well containing 1.5×10^5 splenic cells of Lewis rats in 0.1 mL RPMI-1640 medium supplemented with 10% fetal bovine serum-(FBS), […] 2-mercaptoethanol, penicilln (100 units/mL) and streptomycin (100 μg/mL), to which Concanavalin A ([…]) was added. The cells were incubated at 37° C. in a humidified atmosphere of 5% CO2 for 72 hours. After the culture period, suppressive activities of the test compounds in T lymphocyte blastogenesis were quantified by AlamarBlue (trademark) Assay. The test samples were dissolved in DMSO and further diluted with RPMI-1640 medium and added to the culture. The activities of the test compounds were expressed as IC50.

Row | IC50 [1] | SMILES | IC50 [2]
1 | 28 nM | O=C(/C=C/c1ccc(Cc2nc3ccccc3[nH]2)cc1)NO [Compound E1] | 69 nM
2 | 140 nM | O=C(/C=C/c1ccc(CCc2nc3ccccc3[nH]2)cc1)NO [Compound E3] | 160 nM
3 | 96 nM | O=C(/C=C/c1ccc(C(Cc2ccccc2)c2nc3ccccc3n2Cc2ccccc2)cc1)NO (centres unmarked) [Compound E5] | 310 nM
4 | 150 nM | O=C(/C=C/c1cccc(Cc2nc3ccccc3[nH]2)c1)NO [Compound E6] | 150 nM
